Assay results as given in paper PMC9721426, “Novel piperine-carboximidamide hybrids: design, synthesis, and antiproliferative activity via a multi-targeted inhibitory pathway” (Journal of Enzyme Inhibition and Medicinal Chemistry, 2022).

Tests used:
[1] = tested on: HT-29 (colon cancer cell line); experiment: Antiproliferative MTT assay, HT-29; assay type: cell-based; settings: Homo sapiens; HT-29, MTT; read-out: Antiproliferative activity IC50 ± SEM, HT-29
Method: (§1) The MTT assay was performed using various cell lines in accordance with previously reported procedures[28]^,[29] to investigate the antiproliferative potential of VIa-k. Refer to Appendix A. […]
(§2) added (in 200 μL medium to yield a final concentration of 0.1% v/v) to the wells of plates. A single compound was designated with four wells followed by incubation of […]
(§3) After incubation, medium was removed completely from the plates followed by addition of MTT (0.4 mg/mL in medium) to each well and subsequent incubation of plates for 3h. MTT (along with the medium) was removed and DMSO (150μL) was added to each well of the culture plates, followed by vortexing and subsequent measurement of absorbance (at 540 nm) using microplate reader. The data are shown as percentage inhibition of proliferation in comparison with controls containing 4.2.1.2. Assay for antiproliferative effect […]
(§4) The percentage cytotoxicity of compounds was calculated using the following […]
(§5) Where ATC= Absorbance of treated cells and AC= Absorbance of control. […]
(§6) used as positive control in the assay. […]

[2] = tested on: Panc-1 (pancreatic cancer cell line); experiment: Antiproliferative MTT assay, Panc-1; assay type: cell-based; settings: Homo sapiens; Panc-1, MTT; read-out: Antiproliferative activity IC50 ± SEM, Panc-1
Method: as §1, §2, §3, §4, §5, §6

[3] = MTT cell viability assay on normal mammary epithelial cells; assay type: cell-based; settings: human, MCF-10A normal cells, 4 days incubation
Method: A human mammary gland epithelial (MCF-10A) normal cell line was used to perform the viability test. The viability of compounds VIa-k was determined using the MTT assay after 4 days of incubation with MCF-10A cells[26]^,[27].
The MTT assay was used to assess how the synthetic compounds impacted the viability of mammary epithelial cells (MCF-10A)[26]^,[27]. Appendix A. […]
4.2. Biological evaluation
4.2.1. Cytotoxic activity using MTT Assay and evaluation of IC50
MTT assay was carried out to study the effect of compounds on mammary epithelial cells (MCF-10A)26,27. The medium in which cells were propagated contained Dulbecco's modified Eagle's medium (DMEM)/ Ham's F-12 medium (1:1) supplemented with epidermal growth factor (20 ng/mL), hydrocortisone (500 ng/mL), insulin (10 μg/mL), 2 mM glutamine and 10% foetal calf serum. After every 2-3 days, the cells were passaged using trypsin ethylenediamine tetra acetic acid (EDTA). The cells were seeded at a density of 10^4 cells mL-1 in flat-bottomed culture plates containing 96 wells each. […]
A single compound was designated with four wells followed by incubation of plates for 96h at 37°C. After incubation, medium was removed completely from the plates followed by addition of MTT (0.4 mg/mL in medium) to each well and subsequent incubation of plates for 3h. MTT (along with the medium) was removed and DMSO (150μL) was added to each well of the culture plates, followed by vortexing and subsequent measurement of absorbance (at 540 nm) using microplate reader. […]

[4] = tested on: LOX-IMVI melanoma cell line; experiment: LOX-IMVI melanoma cell line MTT cytotoxicity assay; assay type: cell-based; settings: Homo sapiens, 5-dose concentrations, read-out: LOX-IMVI melanoma IC50 ± SEM
Method: The MTT cytotoxicity assay was used to assess the anticancer activity of VIc, VIf, and VIk on the LOX-IMVI melanoma cell line, which comprises BRAF^V600E kinase overexpression. The compounds were evaluated at 5-dose concentrations to ascertain their IC50 values, with staurosporine acting as a control.
The MTT cytotoxicity assay was used to assess the anticancer activity of VIc, VIf, and VIk on the LOX-IMVI melanoma cell line, which comprises BRAF^V600E kinase overexpression. Refer to Appendix A.

[5] = tested on: A-549 (epithelial cancer cell line); experiment: Antiproliferative MTT assay, A-549; assay type: cell-based; settings: Homo sapiens, A549; A-549, MTT; read-out: Antiproliferative activity IC50 ± SEM, A-549
Method: as §1, §2, §3, §4, §5, §6

BRAF^V600E = target: T1, BRAF^V600E (Mus musculus, UniProt P28028, V585E); experiment: BRAF V600E kinase assay; assay type: biochemical; settings: read-out: BRAF^V600E inhibition IC50 ± SEM
T1 construct: Mouse full-length GST-tagged BRAFV600E; GST; purchased Invitrogen PV3849
T1 sequence (P28028 whole entry V585E): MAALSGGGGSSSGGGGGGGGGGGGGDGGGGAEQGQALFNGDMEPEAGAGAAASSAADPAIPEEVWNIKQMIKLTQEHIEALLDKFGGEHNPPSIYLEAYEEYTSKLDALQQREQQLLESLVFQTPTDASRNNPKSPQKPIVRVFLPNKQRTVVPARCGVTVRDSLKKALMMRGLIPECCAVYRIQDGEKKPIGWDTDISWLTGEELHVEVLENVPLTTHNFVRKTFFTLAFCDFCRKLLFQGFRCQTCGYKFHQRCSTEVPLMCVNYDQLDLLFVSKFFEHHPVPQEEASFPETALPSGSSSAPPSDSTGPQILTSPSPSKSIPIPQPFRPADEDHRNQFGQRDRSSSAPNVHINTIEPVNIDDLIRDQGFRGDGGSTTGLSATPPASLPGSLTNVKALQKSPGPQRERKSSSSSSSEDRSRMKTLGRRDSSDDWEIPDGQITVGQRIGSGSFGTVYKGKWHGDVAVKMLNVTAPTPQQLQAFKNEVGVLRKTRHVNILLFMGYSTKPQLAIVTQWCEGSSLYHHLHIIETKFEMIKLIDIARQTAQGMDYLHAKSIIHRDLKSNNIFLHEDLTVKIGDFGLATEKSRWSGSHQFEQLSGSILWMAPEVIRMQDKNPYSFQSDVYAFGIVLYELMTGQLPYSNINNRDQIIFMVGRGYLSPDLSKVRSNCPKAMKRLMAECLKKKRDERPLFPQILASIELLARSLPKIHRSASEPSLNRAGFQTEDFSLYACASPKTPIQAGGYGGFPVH
Method: An in vitro study was conducted to evaluate the anti-BRAF^V600E of VIc, VIf, VIg, VIi, and VIk[31]. […] An in vitro study[31] was conducted to evaluate the anti-BRAF^V600E of VIc, VIf, VIg, VIi, and Vik. See Appendix A.
4.2.1.4. BRAF kinase assay
V600E mutant BRAF kinase assay was performed to investigate the activity of the most […]
Mouse full-length GST-tagged BRAFV600E (7.5 ng, Invitrogen, PV3849) was pre-incubated with drug (1 µL) and assay dilution buffer (4 µL) for 60 min at 25 °C. In assay dilution buffer, a solution (5 µL) containing MgCl 2 (30 mM), ATP (200 µM), recombinant human full length (200 ng) […] N-terminal His-tagged MEK1 (Invitrogen) was added to start the assay, subsequent to incubation for 25 min at 25 °C. The assay was stopped using 5X protein denaturing buffer (LDS) solution (5 µL).
To further denature the protein, heat (70° C) was applied for 5 min.
NuPage gel plates (Invitrogen) were used to carry out electrophoresis (at 200 V). 10 µL of each reaction was loaded into the precast plates and electrophoresis was allowed to proceed. After completion of electrophoresis, the front part of the precast gel plate (holding hot ATP) was cut and afterw ards cast-off. The dried gel was developed using a […]
that containing no inhibitor served as positive control. […]

[6] = MCF-10A mammary epithelial cells

Structure (SMILES) | IC50 [1] [nM] | IC50 [2] [nM] | viability at 4 days, 50 µM ([3]; MCF-10A normal mammary gland epithelial cells) [%] | IC50 [4] [nM] | IC50 [5] [nM] | IC50 (BRAF^V600E) [nM] | viability at 4 days, 50 µM [3, 6] [%]
N/C(=N/OC(=O)/C=C/C=C/c1ccc2c(c1)OCO2)c1ccc2c(c1)OCO2 [VIk] | 38 ± 3 | 36 ± 3 | 89 | 1050 ± 10 | 32 ± 3 | 40 ± 4 | 
NC(=NOC(=O)/C=C/C=C/c1ccc2c(c1)OCO2)c1ccccc1Cl [VIf, N'-{[(2E,4E)-5-(2H-1,3-benzodioxol-5-yl)penta-2,4-dienoyl]oxy}-2-chlorobenzene-1-carboximidamide] | 47 ± 4 | 45 ± 4 |  | 1100 ± 10 | 41 ± 4 | 49 ± 5 | 90
NC(=NOC(=O)/C=C/C=C/c1ccc2c(c1)OCO2)c1ccc(Br)cc1 [VIc, N'-{[(2E,4E)-5-(2H-1,3-Benzodioxol-5-yl)penta-2,4-dienoyl]oxy}-4-bromobenzene-1-carboximidamide] | 55 ± 5 | 53 ± 5 |  | 1400 ± 20 | 45 ± 5 | 57 ± 6 | 86
